Measurements as given in patent US6096930A, “Herbicidal cyclohexane-1,3-dione derivatives and their preparation process” (Korea Research Institute of Chemical Technology, priority 1994, dated 2000).
Where two headings read alike, the source gives them in different places.

Tests used:
Assay in all cases: Herbicidal activity for paddy test
Format in all cases: in vivo
[1] = system: ECHOR; conditions: for pest or weed control at 2 g/ha: 0.002 kg/ha; for pest or weed control at 8 g/ha: 0.008 kg/ha; for pest or weed control at 31 g/ha: 0.031 kg/ha; for pest or weed control at 125 g/ha: 0.125 kg/ha; for pest or weed control at 500 g/ha: 0.500 kg/ha
From the text: (§1) The sterilized sandy loam soil is filled in test pot having a surface area of 348 cm^2 for upland test conditions or 115 cm^2 for paddy test species were planted in furrows.
(§2) The herbicidal activity data were taken visually by percent control, wherein 0 signifies no herbicidal effect and 100 signifies complete kill.

[2] = system: MOOVA; conditions: for pest or weed control at 2 g/ha: 0.002 kg/ha; for pest or weed control at 8 g/ha: 0.008 kg/ha; for pest or weed control at 31 g/ha: 0.031 kg/ha; for pest or weed control at 125 g/ha: 0.125 kg/ha; for pest or weed control at 500 g/ha: 0.500 kg/ha
From the text: as §1, §2

[3] = system: ORYSA; conditions: for plant injury at 2 g/ha: 0.002 kg/ha; for plant injury at 8 g/ha: 0.008 kg/ha; for plant injury at 31 g/ha: 0.031 kg/ha; for plant injury at 125 g/ha: 0.125 kg/ha; for plant injury at 500 g/ha: 0.500 kg/ha
From the text: as §1, §2

[4] = system: SAGPY; conditions: for pest or weed control at 2 g/ha: 0.002 kg/ha; for pest or weed control at 8 g/ha: 0.008 kg/ha; for pest or weed control at 31 g/ha: 0.031 kg/ha; for pest or weed control at 125 g/ha: 0.125 kg/ha; for pest or weed control at 500 g/ha: 0.500 kg/ha
From the text: as §1, §2

[5] = system: SCPJU; conditions: for pest or weed control at 2 g/ha: 0.002 kg/ha; for pest or weed control at 8 g/ha: 0.008 kg/ha; for pest or weed control at 31 g/ha: 0.031 kg/ha; for pest or weed control at 125 g/ha: 0.125 kg/ha; for pest or weed control at 500 g/ha: 0.500 kg/ha
From the text: as §1, §2

[6] = 3 Leaf, read-out: Herbicidal activity, ORYSA (3 Leaf)
[7] = seed, read-out: Herbicidal activity, ORYSA (seed)

C=CCON=C(CC)C1=C(O)CC(c2c(C)c(C)c3c(c2C)CC(C)(C)C3)CC1=O (stereo not drawn) [Compound 3, 5-(2,2,4,6,7-Pentamethylindan-5-yl)-2-[1-(allyloxyimino)propyl]-3-hydroxycyclohex-2-en-1-one]
10%: plant injury at 125 g/ha [3, 6] | plant injury at 8 g/ha [3, 7]
0%: pest or weed control at 2 g/ha [1] | pest or weed control at 2 g/ha [2] | pest or weed control at 8 g/ha [2] | pest or weed control at 31 g/ha [2] | pest or weed control at 125 g/ha [2] | pest or weed control at 500 g/ha [2] | plant injury at 2 g/ha [3, 6] | plant injury at 8 g/ha [3, 6] | plant injury at 31 g/ha [3, 6] | plant injury at 2 g/ha [3, 7] | pest or weed control at 2 g/ha [4] | pest or weed control at 8 g/ha [4] | pest or weed control at 31 g/ha [4] | pest or weed control at 125 g/ha [4] | pest or weed control at 500 g/ha [4] | pest or weed control at 2 g/ha [5] | pest or weed control at 8 g/ha [5] | pest or weed control at 31 g/ha [5] | pest or weed control at 125 g/ha [5] | pest or weed control at 500 g/ha [5]
100%: pest or weed control at 8 g/ha [1] | pest or weed control at 31 g/ha [1] | pest or weed control at 125 g/ha [1] | pest or weed control at 500 g/ha [1] | plant injury at 500 g/ha [3, 6] | plant injury at 31 g/ha [3, 7] | plant injury at 125 g/ha [3, 7] | plant injury at 500 g/ha [3, 7]

CCC(=NOCC=CCl)C1=C(O)CC(c2c(C)c(C)c3c(c2C)CC(C)(C)C3)CC1=O (stereo not drawn) [Compound 4]
50%: pest or weed control at 500 g/ha [4]
10%: plant injury at 125 g/ha [3, 6]
100%: pest or weed control at 8 g/ha [1] | pest or weed control at 31 g/ha [1] | pest or weed control at 125 g/ha [1] | pest or weed control at 500 g/ha [1] | plant injury at 31 g/ha [3, 7] | plant injury at 125 g/ha [3, 7] | plant injury at 500 g/ha [3, 7]
40%: plant injury at 500 g/ha [3, 6]
0%: pest or weed control at 2 g/ha [1] | pest or weed control at 2 g/ha [2] | pest or weed control at 8 g/ha [2] | pest or weed control at 31 g/ha [2] | pest or weed control at 125 g/ha [2] | pest or weed control at 500 g/ha [2] | plant injury at 2 g/ha [3, 6] | plant injury at 8 g/ha [3, 6] | plant injury at 31 g/ha [3, 6] | plant injury at 2 g/ha [3, 7] | plant injury at 8 g/ha [3, 7] | pest or weed control at 2 g/ha [4] | pest or weed control at 8 g/ha [4] | pest or weed control at 31 g/ha [4] | pest or weed control at 125 g/ha [4] | pest or weed control at 2 g/ha [5] | pest or weed control at 8 g/ha [5] | pest or weed control at 31 g/ha [5] | pest or weed control at 125 g/ha [5] | pest or weed control at 500 g/ha [5]

CCCC(=NOCC)C1=C(O)CC(c2c(C)c(C)c3c(c2C)CC(C)(C)C3)CC1=O (stereo not drawn) [Compound 7]
0%: pest or weed control at 2 g/ha [2] | pest or weed control at 8 g/ha [2] | pest or weed control at 31 g/ha [2] | pest or weed control at 125 g/ha [2] | pest or weed control at 500 g/ha [2] | plant injury at 2 g/ha [3, 6] | plant injury at 8 g/ha [3, 6] | plant injury at 31 g/ha [3, 6] | plant injury at 2 g/ha [3, 7] | pest or weed control at 2 g/ha [4] | pest or weed control at 8 g/ha [4] | pest or weed control at 31 g/ha [4] | pest or weed control at 125 g/ha [4] | pest or weed control at 2 g/ha [5] | pest or weed control at 8 g/ha [5] | pest or weed control at 31 g/ha [5] | pest or weed control at 125 g/ha [5] | pest or weed control at 500 g/ha [5]
20%: plant injury at 125 g/ha [3, 6] | plant injury at 8 g/ha [3, 7]
95%: pest or weed control at 2 g/ha [1] | pest or weed control at 8 g/ha [1]
65%: plant injury at 500 g/ha [3, 6]
100%: pest or weed control at 31 g/ha [1] | pest or weed control at 125 g/ha [1] | pest or weed control at 500 g/ha [1] | plant injury at 31 g/ha [3, 7] | plant injury at 125 g/ha [3, 7] | plant injury at 500 g/ha [3, 7]
40%: pest or weed control at 500 g/ha [4]

C=CCON=C(CCC)C1=C(O)CC(c2c(C)c(C)c3c(c2C)CC(C)(C)C3)CC1=O (stereo not drawn) [Compound 8]
60%: plant injury at 31 g/ha [3, 7]
100%: pest or weed control at 31 g/ha [1] | pest or weed control at 125 g/ha [1] | pest or weed control at 500 g/ha [1] | plant injury at 125 g/ha [3, 7] | plant injury at 500 g/ha [3, 7]
40%: pest or weed control at 8 g/ha [1]
0%: pest or weed control at 2 g/ha [1] | pest or weed control at 2 g/ha [2] | pest or weed control at 8 g/ha [2] | pest or weed control at 31 g/ha [2] | pest or weed control at 125 g/ha [2] | pest or weed control at 500 g/ha [2] | plant injury at 2 g/ha [3, 6] | plant injury at 8 g/ha [3, 6] | plant injury at 31 g/ha [3, 6] | plant injury at 125 g/ha [3, 6] | plant injury at 500 g/ha [3, 6] | plant injury at 2 g/ha [3, 7] | plant injury at 8 g/ha [3, 7] | pest or weed control at 2 g/ha [4] | pest or weed control at 8 g/ha [4] | pest or weed control at 31 g/ha [4] | pest or weed control at 125 g/ha [4] | pest or weed control at 500 g/ha [4] | pest or weed control at 2 g/ha [5] | pest or weed control at 8 g/ha [5] | pest or weed control at 31 g/ha [5] | pest or weed control at 125 g/ha [5] | pest or weed control at 500 g/ha [5]

CCCC(=NOCC=CCl)C1=C(O)CC(c2c(C)c(C)c3c(c2C)CC(C)(C)C3)CC1=O (stereo not drawn) [Compound 9]
50%: pest or weed control at 8 g/ha [1]
0%: pest or weed control at 2 g/ha [1] | pest or weed control at 2 g/ha [2] | pest or weed control at 8 g/ha [2] | pest or weed control at 31 g/ha [2] | pest or weed control at 125 g/ha [2] | pest or weed control at 500 g/ha [2] | plant injury at 2 g/ha [3, 6] | plant injury at 8 g/ha [3, 6] | plant injury at 31 g/ha [3, 6] | plant injury at 125 g/ha [3, 6] | plant injury at 500 g/ha [3, 6] | plant injury at 2 g/ha [3, 7] | plant injury at 8 g/ha [3, 7] | plant injury at 31 g/ha [3, 7] | pest or weed control at 2 g/ha [4] | pest or weed control at 8 g/ha [4] | pest or weed control at 31 g/ha [4] | pest or weed control at 125 g/ha [4] | pest or weed control at 500 g/ha [4] | pest or weed control at 2 g/ha [5] | pest or weed control at 8 g/ha [5] | pest or weed control at 31 g/ha [5] | pest or weed control at 125 g/ha [5] | pest or weed control at 500 g/ha [5]
70%: plant injury at 125 g/ha [3, 7]
100%: pest or weed control at 31 g/ha [1] | pest or weed control at 125 g/ha [1] | pest or weed control at 500 g/ha [1] | plant injury at 500 g/ha [3, 7]

CCC(=NOC)C1=C(O)CC(c2c(C)c(C)c3c(c2C)CC(C)(CC)C3)CC1=O (stereo not drawn) [Compound 11]
30%: pest or weed control at 8 g/ha [1] | pest or weed control at 125 g/ha [2] | plant injury at 125 g/ha [3, 6] | plant injury at 31 g/ha [3, 7]
100%: pest or weed control at 125 g/ha [1] | pest or weed control at 500 g/ha [1] | plant injury at 125 g/ha [3, 7] | plant injury at 500 g/ha [3, 7]
80%: plant injury at 500 g/ha [3, 6]
0%: pest or weed control at 2 g/ha [1] | pest or weed control at 2 g/ha [2] | pest or weed control at 8 g/ha [2] | pest or weed control at 31 g/ha [2] | plant injury at 2 g/ha [3, 6] | plant injury at 8 g/ha [3, 6] | plant injury at 31 g/ha [3, 6] | plant injury at 2 g/ha [3, 7] | plant injury at 8 g/ha [3, 7] | pest or weed control at 2 g/ha [4] | pest or weed control at 8 g/ha [4] | pest or weed control at 31 g/ha [4] | pest or weed control at 125 g/ha [4] | pest or weed control at 500 g/ha [4] | pest or weed control at 2 g/ha [5] | pest or weed control at 8 g/ha [5] | pest or weed control at 31 g/ha [5] | pest or weed control at 125 g/ha [5] | pest or weed control at 500 g/ha [5]
50%: pest or weed control at 500 g/ha [2]
70%: pest or weed control at 31 g/ha [1]

CCON=C(CC)C1=C(O)CC(c2c(C)c(C)c3c(c2C)CC(C)(CC)C3)CC1=O (stereo not drawn) [Compound 12]
0%: pest or weed control at 2 g/ha [2] | pest or weed control at 8 g/ha [2] | pest or weed control at 31 g/ha [2] | pest or weed control at 125 g/ha [2] | plant injury at 2 g/ha [3, 6] | plant injury at 8 g/ha [3, 6] | plant injury at 31 g/ha [3, 6] | plant injury at 125 g/ha [3, 6] | plant injury at 2 g/ha [3, 7] | plant injury at 8 g/ha [3, 7] | pest or weed control at 2 g/ha [4] | pest or weed control at 8 g/ha [4] | pest or weed control at 31 g/ha [4] | pest or weed control at 125 g/ha [4] | pest or weed control at 2 g/ha [5] | pest or weed control at 8 g/ha [5] | pest or weed control at 31 g/ha [5] | pest or weed control at 125 g/ha [5]
50%: pest or weed control at 500 g/ha [2]
100%: pest or weed control at 31 g/ha [1] | pest or weed control at 125 g/ha [1] | pest or weed control at 500 g/ha [1] | plant injury at 125 g/ha [3, 7] | plant injury at 500 g/ha [3, 7]
70%: pest or weed control at 8 g/ha [1]
40%: plant injury at 500 g/ha [3, 6]
30%: pest or weed control at 2 g/ha [1] | plant injury at 31 g/ha [3, 7] | pest or weed control at 500 g/ha [4]
60%: pest or weed control at 500 g/ha [5]
